Source: article PMC10780175, “In Silico and In Vivo Pharmacokinetic Evaluation of 84-B10, a Novel Drug Candidate against Acute Kidney Injury and Chronic Kidney Disease” (Molecules, 2023)
Read-outs that look alike come from different tables or passages of the source.

Columns and labels:
[1] = test system: renal fibrosis induced by unilateral ureteral obstruction (UUO) or unilateral ischemia reperfusion injury (UIRI); parameters: method as in PMID 36403736, PMID 36629048; conditions: mice, dose of 0.5–7.5 mg/kg; cited from earlier work
[2] = test system: cisplatin-induced acute kidney injury; parameters: method as in PMID 36403736, PMID 36629048; conditions: mice, 5 mg/kg; cited from earlier work
[3] = Tissue distribution in rats after intraperitoneal injection; assay type: in vivo, Sprague Dawley rats; conditions: intraperitoneal 0.36 mg/kg
Method: (§1) The validated UPLC-MS/MS method was successfully applied to the pharmacokinetic study and tissue distribution in rats after an intraperitoneal injection of 84-B10 (0.36 mg/kg). […] Two hours later, the plasma concentration tended to flatten out, with a concentration of approximately 10 ng/mL. AUC0–t and AUC0–∞ were 269 and 278 h*ng/mL, respectively. After an intraperitoneal administration, 84-B10 could be detected in different tissues, indicating a wide distribution (Figure 4). The compound rapidly distributed and reached maximum concentration at 0.033 h for most tissues. […] In most tissues, 84-B10 was eliminated at 8 h.
(§2) After one week of adaptive feeding, pharmacokinetic experiments were conducted. 84-B10 (0.36 mg/kg) solution was injected and blood was collected into tubes containing heparin sodium at 0.033, 0.083, 0.25, 0.5, 1, 2, 4, 6 and 8 h after administration. Blood was centrifuged at 8000 rpm for 5 min to obtain the plasma. The tissue was accurately weighed and ground with pure water (w:v, 1:5) to obtain homogenate. An amount of 50 µL of biological matrix was precipitated with 200 μL of methanol containing IS (Ginkgolide J, 2 μg/mL). After vortexing for 5 min, the samples were centrifuged at 12,000 rpm for 5 min and the supernatant was taken for injection.

[4] = parameters: method as in PMID 36629048; conditions: mice, intraperitoneal 5 mg/kg, plasma, non-compartmental WinNonlin 7.0 on concentrations from previous publication; cited from earlier work
Lon protease 1 (LONP1) = target: Lon protease 1 (LONP1); parameters: method as in PMID 36629048; conditions: cited from earlier work
LonP1 = test system: LonP1; parameters: method as in PMID 36629048; conditions: cited from earlier work
[5] = Stability of 84-B10 in rat plasma under different storage conditions; assay type: in vitro ADME; conditions: n = 6
Method: The method was validated according to the Bioanalytical Method Validation Guidance for Industry issued by Food and Drug Administration of USA in 2018. In short, blank plasma from six different rats was collected and spiked with or without LLOQ working solutions to evaluate the sensitivity. The linear least square method was used to fit the standard curve, and the weighting coefficient was 1/x^2. The precision and accuracy were evaluated by analyzing three different concentrations of quality control samples in three consecutive days. Blank plasma was first precipitated with methanol and then spiked with QC working solutions into supernatant. The peak area was compared with QC samples to estimate the extraction recovery. Alternatively, blank plasma was replaced with ultrapure water and mixed with QC working solutions. The matrix effect was then evaluated. For stability evaluation, different concentrations of QC samples were stored at room temperature for 2 h, frozen–thawed for three cycles, or stored in an auto-sampler (extracted samples, 4 °C) for 24 h and then analyzed.

[6] = Pharmacokinetic study in rats after intraperitoneal injection (UHPLC-MS/MS); assay type: in vivo, Sprague Dawley rats; conditions: for Cmax / AUC(0-inf) / AUC(0-t) / Tmax / half-life: ip
Method: as §1
84-B10 was determined and quantified by ExionLC system coupled with SCIEX 4500 triple quadrupole mass spectrometers (SCIEX, Framingham, MA, USA). A phenyl HPLC column (50 × 2.1 mm, 3 μm) (YMC, Kyoto, Japan) was used for separation. Methanol was selected as the organic phase as it could better reflect the π-π selectivity between benzene and the chromatographic column. An amount of 5 mM ammonium formate was added into water to adjust the dissociation of 84-B10 and to improve the chromatographic peak. The flow rate was 0.3 mL/min with gradient elution (Table 8).
as §2

[7] = extracted rat plasma samples, autosampler 4 °C for 24 h, spiked 3 ng/mL
[8] = extracted rat plasma samples, autosampler 4 °C for 24 h, spiked 300 ng/mL
[9] = extracted rat plasma samples, autosampler 4 °C for 24 h, spiked 750 ng/mL
[10] = rat plasma, room temperature for 2 h, spiked 3 ng/mL
[11] = rat plasma, room temperature for 2 h, spiked 300 ng/mL
[12] = rat plasma, room temperature for 2 h, spiked 750 ng/mL
[13] = rat plasma, three freeze–thaw cycles, spiked 3 ng/mL
[14] = rat plasma, three freeze–thaw cycles, spiked 300 ng/mL
[15] = rat plasma, three freeze–thaw cycles, spiked 750 ng/mL
[16] = Sprague Dawley, rat, plasma, single intraperitoneal injection 0.36 mg/kg, female, mean ± SD
[17] = Sprague Dawley, rat, plasma, single intraperitoneal injection 0.36 mg/kg, male, mean ± SD
[18] = both sexes, Sprague Dawley, rat, plasma, single intraperitoneal injection 0.36 mg/kg, total (male and female), mean ± SD

- Tmax ([3]; Sprague Dawley, rat, most tissues (tissue homogenate), ip, most tissues, read-out: time of maximum concentration in most tissues): 1.98 min
- time at which eliminated in most tissues ([3]; most tissues): 8 h
- Measured Concentrations [5, 7]: 3.15 ± 0.11 ng/mL
- RE [5, 7]: 5.00%
- Measured Concentrations [5, 8]: 299 ± 10 ng/mL
- RE [5, 8]: −0.33%
- Measured Concentrations [5, 9]: 710 ± 27 ng/mL
- RE [5, 9]: −5.38%
- Measured Concentrations [5, 10]: 2.96 ± 0.10 ng/mL
- RE [5, 10]: −1.50%
- Measured Concentrations [5, 11]: 278 ± 3 ng/mL
- RE [5, 11]: −7.44%
- Measured Concentrations [5, 12]: 670 ± 15 ng/mL
- RE [5, 12]: −10.7%
- Measured Concentrations [5, 13]: 2.87 ± 0.29 ng/mL
- RE [5, 13]: −4.22%
- Measured Concentrations [5, 14]: 287 ± 20 ng/mL
- RE [5, 14]: −4.28%
- Measured Concentrations [5, 15]: 684 ± 18 ng/mL
- RE [5, 15]: −8.87%
- Cmax ([6]; Sprague Dawley, rat, intraperitoneal 0.36 mg/kg, plasma, non-compartmental WinNonlin 7.0, read-out: Cmax, observed): 257 ng/mL
- concentration at 2 h ([6]; Sprague Dawley, rat, plasma, intraperitoneal 0.36 mg/kg, 2 h after injection, curve flattens out, read-out: plasma concentration two hours later): ~10 ng/mL
- AUC(0-inf) [6, 16]: 241 ± 29 ng·h/mL
- AUC(0-t) [6, 16]: 233 ± 27 ng·h/mL
- Tmax [6, 16]: 8.4 ± 6 min
- half-life [6, 16]: 25.8 ± 2.4 min
- Cmax ([6]; Sprague Dawley, rat, plasma, single intraperitoneal injection 0.36 mg/kg, female, mean ± SD, read-out: Cmax): 231 ± 2.08 ng/mL
- AUC(0-inf) [6, 17]: 315 ± 31 ng·h/mL
- AUC(0-t) [6, 17]: 305 ± 30.2 ng·h/mL
- Tmax [6, 17]: 11.4 ± 6 min
- half-life [6, 17]: 27 ± 1.2 min
- Cmax ([6]; Sprague Dawley, rat, plasma, single intraperitoneal injection 0.36 mg/kg, male, mean ± SD, read-out: Cmax): 284 ± 48.2 ng/mL
- AUC(0-inf) [6, 18]: 278 ± 48.9 ng·h/mL
- AUC(0-t) [6, 18]: 269 ± 47.3 ng·h/mL
- Tmax [6, 18]: 10.2 ± 5.4 min
- half-life [6, 18]: 26.4 ± 1.8 min
- Cmax ([6]; both sexes, Sprague Dawley, rat, plasma, single intraperitoneal injection 0.36 mg/kg, total (male and female), mean ± SD, read-out: Cmax): 257 ± 42.4 ng/mL
- gender difference in the absorption ([6]; intraperitoneal 0.36 mg/kg, male vs female): no significant gender difference
- Cl, observed ([6]; intraperitoneal 0.36 mg/kg, plasma, non-compartmental WinNonlin 7.0): 22.2 mL/min/kg
- CL ([6]; single intraperitoneal injection 0.36 mg/kg, female, mean ± SD): 25.15 ± 2.95 mL/min/kg
- CL ([6]; single intraperitoneal injection 0.36 mg/kg, male, mean ± SD): 19.15 ± 1.98 mL/min/kg
- CL ([6]; single intraperitoneal injection 0.36 mg/kg, total (male and female), mean ± SD): 22.15 ± 3.98 mL/min/kg
Compound: COc1ccc(Oc2ccc(C(F)(F)F)cc2NC(=O)CC(CC(=O)O)c2ccccc2)cc1 (stereo not shown) [84-B10, 5-[[2-(4-methoxyphenoxy)-5-(trifluoromethyl)phenyl]amino]-5-oxo-3-phenylpentanoic acid]
- effect on renal fibrosis induced by UUO or UIRI [1]: dose-dependently alleviated renal fibrosis
- therapeutic effect on cisplatin-induced acute kidney injury [2]: significant therapeutic effect
- tissues with highest concentration [3]: most concentrated in the intestine, stomach, liver, kidney and lung
- AUC0→t, observed [4]: 1327 ng·h/mL
- Cl, observed [4]: 56.8 mL/min/kg
- Cmax, observed [4]: 2038 ng/mL
- Vd, observed [4]: 11.20 L/kg
- Kd (Lon protease 1 (LONP1); previous research, read-out: binding affinity): 312 nM
- binding affinity (Lon protease 1 (LONP1); same value expressed in ng/mL): 147 ng/mL
- LonP1 activation (LonP1): new LonP1 activator
